This is an account of results in PMC7235904, “Is Blood a Good Indicator for Detecting Antimicrobials in Meat? Evidence for the Development of In Vivo Surveillance Methods” (Antibiotics, 2020).

This data set is described as follows: Relationship between concentrations detected in paired blood and muscle samples. The following applies: paired pig blood and muscle samples. It counts as in vivo, pigs. Here is the method: After administration, animals were slaughtered at preset intervals within the withdrawal period in order to obtain samples containing different antimicrobial concentrations above and below the MRLs for muscle. Figure S1 indicates the slaughter days and the withdrawal periods set by the manufacturer for each antimicrobial compound administered. Between one and three piglets were slaughtered on the same day post-administration. The day of slaughter was calculated from the first day after the last antimicrobial treatment dose. […] Apart from samples containing antimicrobial compounds administered in vivo, and as a part of the sample bank, 15 of the 93 piglets were slaughtered after the acclimatization period and before treatment onset. Animals were stunned and slaughtered following the guidelines established by European Council Regulation (EC) No. 1099/2009 [39] regarding the protection of animals at the time of slaughter or killing. A penetrative captive bolt gun was used to stun the pigs, positioning it firmly against the skin, in the middle of the forehead, 2 cm above the line of the eyes, aiming towards the tail. […]
Data were analyzed and submitted to comparison of averages via ANOVA, followed by a post-hoc Tukey test and t-tests with GraphPad PRISM. […]

“Also recorded” adds a separate entry of the source.

As to `COc1ccc(NS(=O)(=O)c2ccc(N)cc2)nn1` [Sulfamethoxypyridazine, sulfamethoxypyridazine], the “Concentration in blood compared to muscle” value was “three times higher in blood; also recorded: around three times higher”.
